# Patent US20050119194A1, “Methods of using and compositions comprising thalidomide for treatment, modification and management of fibromyalgia” (priority 2003, published 2005)
# Tested on: fibromyalgia patients
# Test: Clinical studies in fibromyalgia patients
# Type: in vivo, human
# Protocol: Pressure of approximate 4 kg/cm^2 is applied manually at multiple anatomic points of patients with fibromyalgia to evaluate pain and tenderness. A useful device for quantitating pain sensitivity is a pressure algometer or dolorimeter. […] Clinical studies are performed in fibromyalgia patients that have not responded to conventional physical therapy and have been present for at least one year. In one embodiment, thalidomide is administered in an amount of 100 to 400 mg per day to patients with fibromyalgia for from three months to one year. A baseline evaluation is performed for the effect of the drug treatment on pain intensity, impact of pain on activities of daily living, and consumption of other pain medications.
structure (smiles),measurement,setting,value
"O=C1CCC(N2C(=O)c3ccccc3C2=O)C(=O)N1 (racemic) [thalidomide, 2-(2,6-dioxo-3-piperidinyl)-1H-isoindole-1,3(2H)-dione]",Tolerability of treatment,300 mg continuous oral daily dose,well-tolerated
same,Analgesic effect in fibromyalgia,100 to 400 mg per day for three months to one year,analgesic benefit
